Measurements taken from ChEMBL document CHEMBL1201862, “PubChem BioAssay data set” (2004).
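96-well plates; 48 h exposure; 5 concentrations. Endpoints by linear interpolation between flanking doses. Not reached: highest tested concentration assigned. Here, GI50 denotes the concentration required for 50% inhibition of growth.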 Calls of active or inactive are those of the source. Cut-off read from the data, not from the text of the source: active = GI50 up to about 1.1 µM and inactive = higher.

What was measured:
Experiment in all cases: growth of human tumour cells (NCI), 48 h
A498 = tested on: A498
CCRF-CEM = tested on: CCRF-CEM
HL-60 = tested on: HL-60
Hs-578T = tested on: Hs-578T
K562 = tested on: K562
MDA-MB-231 = tested on: MDA-MB-231
NCI-H460 = tested on: NCI-H460
OVCAR-3 = tested on: OVCAR-3
OVCAR-8 = tested on: OVCAR-8
RXF 393 = tested on: RXF 393
SK-MEL-5 = tested on: SK-MEL-5
SK-OV-3 = tested on: SK-OV-3
SNB-19 = tested on: SNB-19
SR = tested on: SR
T47D = tested on: T47D
A549 = tested on: A549
EKVX = tested on: EKVX
SF-268 = tested on: SF-268
SF-295 = tested on: SF-295
SW-620 = tested on: SW-620

Measured: GI50

O=C(C[C@H](NC(=O)OCc1ccccc1)C(=O)NC1Cc2ccccc2OC1=O)OCc1ccccc1 (stereo partly drawn)
inactive: A498 > 100 µM | CCRF-CEM 17.4 µM | HL-60 > 10 µM | Hs-578T > 100 µM | K562 15.7 µM | MDA-MB-231 26.7 µM | NCI-H460 41.6 µM | OVCAR-3 > 100 µM | OVCAR-8 > 100 µM | RXF 393 > 100 µM | SK-MEL-5 > 100 µM | SK-OV-3 > 100 µM | SNB-19 > 100 µM | SR > 100 µM | T47D 94.8 µM

O=C1N[C@H]2C(=O)c3c(Br)sc(Br)c3[C@H]2O1
inactive: A498 18.7 µM | A549 19.4 µM | CCRF-CEM 1.31 µM | EKVX 5.69 µM | Hs-578T 18.7 µM | K562 2.66 µM | MDA-MB-231 8.83 µM | NCI-H460 16.8 µM | OVCAR-3 3.11 µM | OVCAR-8 3.82 µM | RXF 393 3.18 µM | SF-268 4.1 µM | SF-295 18.5 µM | SK-MEL-5 14 µM | SK-OV-3 18.4 µM | SNB-19 15.9 µM | SR 1.87 µM | SW-620 2.17 µM | T47D 14.3 µM

O=C(O)C1CC=CCC1C(=O)Nc1cccc(O)c1 (stereo not drawn)
inactive: A498 > 100 µM | A549 > 100 µM | EKVX > 100 µM | HL-60 > 100 µM | Hs-578T > 100 µM | K562 > 100 µM | MDA-MB-231 > 100 µM | NCI-H460 > 100 µM | OVCAR-3 > 100 µM | OVCAR-8 > 100 µM | RXF 393 > 100 µM | SF-268 > 100 µM | SF-295 > 100 µM | SK-MEL-5 > 100 µM | SK-OV-3 > 100 µM | SNB-19 > 100 µM | SR > 100 µM | SW-620 > 100 µM | T47D > 100 µM

COC(=O)/C=C/C(=O)Nc1cc(Cl)c(Cl)cc1CC(=O)N(C)[C@H]1CCCC[C@@H]1N1CCCC1
inactive: A498 14.4 µM | A549 21.5 µM | CCRF-CEM 2.79 µM | EKVX 13.1 µM | HL-60 2.06 µM | Hs-578T 18.1 µM | K562 3.72 µM | MDA-MB-231 13.3 µM | NCI-H460 17.3 µM | OVCAR-3 3.27 µM | OVCAR-8 5.27 µM | RXF 393 4.01 µM | SF-268 18.7 µM | SF-295 18.3 µM | SK-MEL-5 8.67 µM | SK-OV-3 18.1 µM | SNB-19 18.3 µM | SR 1.95 µM | SW-620 3.63 µM | T47D 8.73 µM

Cn1c(=O)cc(/N=N\c2ccc(Cl)c(Cl)c2)[nH]c1=O
inactive: A498 > 100 µM | A549 > 100 µM | CCRF-CEM 24.2 µM | EKVX 24.5 µM | HL-60 20.8 µM | Hs-578T 33.4 µM | K562 28.1 µM | MDA-MB-231 24.8 µM | NCI-H460 29.9 µM | OVCAR-3 18.7 µM | OVCAR-8 23.4 µM | RXF 393 23.3 µM | SF-268 20.1 µM | SF-295 > 100 µM | SK-MEL-5 35.2 µM | SK-OV-3 > 100 µM | SNB-19 63.8 µM | SR 25.5 µM | SW-620 24.3 µM | T47D 29.7 µM

CC1Cc2c(cc(N)nc2Br)NC1=O (stereo not drawn)
inactive: A549 63.7 µM | CCRF-CEM > 100 µM | EKVX 11 µM | HL-60 > 10 µM | Hs-578T > 100 µM | K562 63.4 µM | MDA-MB-231 > 100 µM | NCI-H460 > 100 µM | OVCAR-3 > 100 µM | OVCAR-8 > 100 µM | RXF 393 81.8 µM | SF-268 > 100 µM | SF-295 > 100 µM | SK-MEL-5 85.1 µM | SK-OV-3 > 100 µM | SNB-19 > 100 µM | SR 84.1 µM | SW-620 > 100 µM | T47D 42.7 µM

COCn1c(C)c(C)c2c(=O)oc(N(C)C)nc21
inactive: A498 39 µM | A549 > 100 µM | CCRF-CEM > 100 µM | EKVX > 100 µM | HL-60 > 100 µM | Hs-578T > 100 µM | K562 > 100 µM | MDA-MB-231 > 100 µM | NCI-H460 > 100 µM | OVCAR-8 > 100 µM | RXF 393 > 100 µM | SF-295 > 100 µM | SK-MEL-5 > 100 µM | SK-OV-3 > 100 µM | SNB-19 67 µM | SR > 100 µM | SW-620 > 100 µM | T47D > 100 µM

O=C(Cn1c(C(=O)/C=C/c2ccc(Cl)cc2)nc2ccccc21)c1ccc(Cl)cc1
inactive: A498 32.3 µM | A549 21 µM | CCRF-CEM 2.7 µM | EKVX 26.5 µM | HL-60 10.1 µM | Hs-578T 10.9 µM | K562 6.07 µM | MDA-MB-231 19.9 µM | NCI-H460 10.9 µM | OVCAR-3 8.87 µM | RXF 393 15.5 µM | SF-268 23.3 µM | SK-MEL-5 14.8 µM | SK-OV-3 26.9 µM | SNB-19 20.7 µM | SR 4.25 µM | SW-620 11.4 µM | T47D 28.6 µM
